IC50 data for 21 molecules are collected here from patent US20230113037A1 (Bayer Aktiengesellschaft, priority 2019, published 2023).

The target in test [1] is T1, AHR (Mus musculus, UniProt P30561).
T1 sequence (P30561 1-848 P471L/N533S/M589L): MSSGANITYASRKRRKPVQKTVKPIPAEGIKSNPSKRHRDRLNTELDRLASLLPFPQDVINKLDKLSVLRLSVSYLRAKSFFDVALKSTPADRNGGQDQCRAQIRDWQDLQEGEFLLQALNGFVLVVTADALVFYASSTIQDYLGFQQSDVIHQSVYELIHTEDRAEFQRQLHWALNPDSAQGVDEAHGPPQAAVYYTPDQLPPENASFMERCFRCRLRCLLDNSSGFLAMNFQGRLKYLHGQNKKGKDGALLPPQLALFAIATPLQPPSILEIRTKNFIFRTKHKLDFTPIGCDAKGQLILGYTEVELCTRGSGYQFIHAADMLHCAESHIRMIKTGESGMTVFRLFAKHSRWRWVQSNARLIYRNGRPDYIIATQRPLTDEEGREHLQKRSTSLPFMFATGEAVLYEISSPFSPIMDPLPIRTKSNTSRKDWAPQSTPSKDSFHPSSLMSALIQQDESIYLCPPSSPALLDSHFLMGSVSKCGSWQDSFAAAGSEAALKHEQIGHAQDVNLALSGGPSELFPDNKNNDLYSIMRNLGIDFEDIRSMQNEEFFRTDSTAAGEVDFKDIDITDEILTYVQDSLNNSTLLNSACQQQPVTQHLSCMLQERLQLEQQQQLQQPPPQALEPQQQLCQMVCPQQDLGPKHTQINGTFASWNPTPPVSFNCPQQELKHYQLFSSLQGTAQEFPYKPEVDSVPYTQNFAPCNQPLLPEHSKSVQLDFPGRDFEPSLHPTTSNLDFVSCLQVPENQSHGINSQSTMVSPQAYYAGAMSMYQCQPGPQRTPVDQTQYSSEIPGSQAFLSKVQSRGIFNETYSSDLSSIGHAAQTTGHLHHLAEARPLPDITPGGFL
Briefly: In vitro assay 3: antagonism in mouse cell line (AHR transactivation, firefly luciferase reporter, kynurenic acid prestimulated). The test is classed as cell-based. As to conditions: 200 μM kynurenic acid, 20 hours, read-out: AHR Antagonism Mouse IC50. Summed up: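 Kynurenic acid-prestimulated mouse reporter cells; stable AHR-inducible firefly luc construct with DRE sites in promoter. No-agonist wells = positive inhibition ctrl. Luminescence normalized to pos/neg ctrls; n>1 reported as mean or median.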
(A reporter such as luciferase makes a cellular process visible.)

Test [2] deals with T2, AHR (Homo sapiens, UniProt P35869).
T2 construct: U87 MG glioblastoma cells (ATCC #HTB-14) endogenously expressing AHR; endogenous in cells; host or cells: U87 MG glioblastoma cells (ATCC #HTB-14)
T2 sequence (P35869 11-848): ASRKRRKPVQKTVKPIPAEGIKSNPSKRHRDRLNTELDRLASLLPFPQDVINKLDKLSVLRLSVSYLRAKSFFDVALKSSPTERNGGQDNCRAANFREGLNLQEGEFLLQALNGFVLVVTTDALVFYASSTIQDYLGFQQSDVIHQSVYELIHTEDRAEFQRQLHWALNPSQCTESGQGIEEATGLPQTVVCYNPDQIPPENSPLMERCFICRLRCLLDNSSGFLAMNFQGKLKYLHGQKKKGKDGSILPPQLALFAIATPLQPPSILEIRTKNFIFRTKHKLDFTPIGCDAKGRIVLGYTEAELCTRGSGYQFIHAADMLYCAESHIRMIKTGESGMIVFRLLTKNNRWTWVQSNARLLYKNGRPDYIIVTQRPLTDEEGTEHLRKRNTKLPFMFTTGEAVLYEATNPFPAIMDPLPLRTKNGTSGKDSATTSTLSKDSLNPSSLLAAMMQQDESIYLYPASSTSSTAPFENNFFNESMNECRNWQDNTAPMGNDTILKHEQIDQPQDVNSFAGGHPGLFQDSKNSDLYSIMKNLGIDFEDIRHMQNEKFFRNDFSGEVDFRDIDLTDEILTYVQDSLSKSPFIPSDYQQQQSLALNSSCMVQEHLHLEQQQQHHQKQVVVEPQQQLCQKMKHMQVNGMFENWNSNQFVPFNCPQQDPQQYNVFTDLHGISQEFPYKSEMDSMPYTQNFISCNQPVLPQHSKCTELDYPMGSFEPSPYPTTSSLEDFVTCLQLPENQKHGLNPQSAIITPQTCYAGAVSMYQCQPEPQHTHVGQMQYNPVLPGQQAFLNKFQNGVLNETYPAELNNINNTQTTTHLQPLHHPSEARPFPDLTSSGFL
Description: In vitro assay 1: antagonism in human cell line (AHR transactivation, firefly luciferase reporter, kynurenic acid prestimulated). Type of test: cell-based. As to conditions: AHR Antagonism Human IC50 [M]. Summed up: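 Antagonism is measured against kynurenic acid prestimulation in U87 MG glioblastoma cells carrying stable DRE-luciferase and Renilla reporters. Positive inhibition control: 150 μM kynurenic acid with 5 μM staurosporine. Values are normalized to controls; repeats are averaged or given as medians.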

Where [3] appears, read: Hepa 1c1c7 cells, firefly luciferase reporter.

“And” between values parts separate entries of the source, which are not always exact repeats. Identical values can stand only once. Like-named read-outs stand apart in the source and are kept apart here.

One may read the IC50 as the concentration that inhibits the measured activity by half. In the case of `CCNC(=O)C(CC)Nc1nc2ccccc2c2nc(-c3ccccc3OC(F)(F)F)nn12` (stereo not drawn) [Example 463, N-ethyl-2-({2-[2-(trifluoromethoxy)phenyl][1,2,4]triazolo[1,5-c]quinazolin-5-yl}amino)butanamide], the IC50 on AHR [1] (mouse Hepa 1c1c7 cells) amounted to 1.88 nM; on AHR [2], 2.94e-08 M.
For the molecule `O=C1NCC[C@H]1Nc1nc2ccccc2c2nc(-c3cc(Cl)ccc3OC(F)(F)F)nn12` [Example 500, (3R)-3-({2-[5-chloro-2-(trifluoromethoxy)phenyl][1,2,4]triazolo[1,5-c]quinazolin-5-yl}amino)pyrrolidin-2-one], the IC50 on AHR [1] (mouse Hepa 1c1c7 cells) is 2970 nM; on AHR [2], over 2e-05 M.
Turning to `COc1ccc(-c2nc3c4ccccc4nc(N[C@@H]4CCCCNC4=O)n3n2)c(C(F)(F)F)c1` [Example 512, (3R)-3-({2-[4-methoxy-2-(trifluoromethyl)phenyl][1,2,4]triazolo[1,5-c]quinazolin-5-yl}amino)azepan-2-one], the IC50 was 2.48 nM at AHR [1] (mouse Hepa 1c1c7 cells) and 1.04e-08 M at AHR [2].
The corresponding values for `CC[C@@H](Nc1nc2ccccc2c2nc(-c3ccncc3F)nn12)C(N)=O` [Example 484, (2R)-2-{[2-(3-fluoropyridin-4-yl)[1,2,4]triazolo[1,5-c]quinazolin-5-yl]amino}butanamide] are 27.6 nM and 9.06e-08 M.
In the case of `Cn1cc(-c2nc3c4cccc(Br)c4nc(N[C@H]4CS(=N)(=O)CCNC4=O)n3n2)cn1` (single isomer, unassigned) [Example 856], the half-inhibitory concentration (IC50) on AHR [1] (setting [3]) is 19600 nM and > 20000 nM; at AHR [2] (firefly luciferase reporter), over 2e-05 M.
As to `CCCCNC(=O)[C@H](C)Nc1nc2ccccc2c2nc(-c3ccc(Cl)cc3OC(F)(F)F)nn12` [Example 521, N-butyl-N^2-{2-[4-chloro-2-(trifluoromethoxy)phenyl][1,2,4]triazolo[1,5-c]quinazolin-5-yl}alaninamide], the figures for the IC50 at AHR [1] (mouse Hepa 1c1c7 cells) and against AHR [2] were 12.2 nM and 2.04e-08 M, respectively.
As for `CC[C@H](Nc1nc2ccccc2c2nc(-c3cnccn3)nn12)C(N)=O` [Example 688, (2S)-2-{[2-(pyrazin-2-yl)[1,2,4]triazolo[1,5-c]quinazolin-5-yl]amino}butanamide], the half-maximal inhibitory concentration (IC50) is over 20000 nM on AHR [1] (mouse Hepa 1c1c7 cells) and over 2e-05 M at AHR [2].
As for `O=C1NCCCC[C@H]1Nc1nc2ccccc2c2nc(-c3ccn4ccnc4c3)nn12` [Example 390, (3R)-3-{[2-(Imidazo[1,2-a]pyridin-7-yl)[1,2,4]triazolo[1,5-c]quinazolin-5-yl]amino}azepan-2-one], the IC50 at AHR [1] (mouse Hepa 1c1c7 cells) worked out at 1.02 nM; at AHR [2], 1.38e-09 M.
The corresponding values for `COc1ccc(-c2nc3c4ccc(F)cc4nc(N[C@@H]4CNCCNC4=O)n3n2)cc1` [Example 276, (6R)-6-{[8-fluoro-2-(4-methoxyphenyl)[1,2,4]triazolo[1,5-c]quinazolin-5-yl]amino}-1,4-diazepan-5-one] are 16.4 nM and 1.45e-08 M.
In the case of `COc1ccc(-c2nc3c4ccccc4nc(N[C@H](C)C(=O)NCCN4CCN(C)CC4)n3n2)cc1` [Example 881, N^2-[2-(4-methoxyphenyl)[1,2,4]triazolo[1,5-c]quinazolin-5-yl]-N-[2-(4-methylpiperazin-1-yl)ethyl]-D-alaninamide], the IC50 on AHR [1] (setting [3]) is 12.2 nM; at AHR [2] (firefly luciferase reporter) it was 6.04e-09 M.
As for `O=C1NCCCC[C@H]1Nc1nc2c(C(F)(F)F)cccc2c2nc(-c3cnn(C4CC4)c3)nn12` [Example 676, (3R)-3-{[2-(1-cyclopropyl-1H-pyrazol-4-yl)-7-(trifluoromethyl)[1,2,4]triazolo[1,5-c]quinazolin-5-yl]amino}azepan-2-one], the half-inhibitory concentration (IC50) at AHR [1] (mouse Hepa 1c1c7 cells) was 1.97 nM; against AHR [2] it was 6.18e-10 M.
As to `Cn1cc(-c2nc3c4ccccc4nc(NC4CNCCNC4=O)n3n2)cn1` (single isomer, unassigned) [Example 23, 6-{[2-(1-methyl-1H-pyrazol-4-yl)[1,2,4]triazolo[1,5-c]quinazolin-5-yl]amino}-1,4-diazepan-5-one], the IC50 at AHR [1] (mouse Hepa 1c1c7 cells) is 3380 nM; against AHR [2], > 2e-05 M and 1.65e-05 M.
As for `COc1ccc(-c2nc3c4ccccc4nc(N[C@H](C)C(=O)NCCN4CCOCC4)n3n2)cc1` [Example 779, N^2-[2-(4-methoxyphenyl)[1,2,4]triazolo[1,5-c]quinazolin-5-yl]-N-[2-(morpholin-4-yl)ethyl]-D-alaninamide], the values for the concentration for half-maximal inhibition (IC50) at AHR [1] (mouse Hepa 1c1c7 cells) and on AHR [2] were 5.96 nM and 4.3e-09 M, respectively.
Consider `COc1ccc(-c2nc3c4cccc(S(=O)(=O)C(C)C)c4nc(N[C@@H]4CCCCNC4=O)n3n2)cc1` [Example 843, (3R)-3-{[2-(4-methoxyphenyl)-7-(propane-2-sulfonyl)[1,2,4]triazolo[1,5-c]quinazolin-5-yl]amino}azepan-2-one], for which the values for the concentration for half-maximal inhibition (IC50) at AHR [1] (setting [3]) and against AHR [2] (firefly luciferase reporter) were 11.1 nM and 4.46e-09 M, respectively.
In the case of `COc1cccc(-c2nc3c4ccccc4nc(N[C@H](C)C(N)=O)n3n2)c1` [Example 92, N^2-[2-(3-methoxyphenyl)[1,2,4]triazolo[1,5-c]quinazolin-5-yl]-D-alaninamide], the results for the IC50 on AHR [1] (mouse Hepa 1c1c7 cells) and against AHR [2] were 4.38 nM and 8.63e-09 M, respectively.
As to `C[C@@H]1COCCN1C(=O)[C@@H](C)Nc1nc2c(Br)cccc2c2nc(-c3cnn(C)c3)nn12` [Example 912, (2R)-2-{[7-bromo-2-(1-methyl-1H-pyrazol-4-yl)[1,2,4]triazolo[1,5-c]quinazolin-5-yl]amino}-1-[(3R)-3-methylmorpholin-4-yl]propan-1-one], the figures for the IC50 on AHR [1] (setting [3]) and at AHR [2] (firefly luciferase reporter) were 13.7 nM and 2.16e-08 M, respectively.
For `COc1ccc(-c2nc3c4ccc(F)cc4nc(N[C@@H]4CCCCNC4=O)n3n2)cc1` [Example 153, (3R)-3-{[8-fluoro-2-(4-methoxyphenyl)[1,2,4]triazolo[1,5-c]quinazolin-5-yl]amino}azepan-2-one], the IC50 is 1.18 nM at AHR [1] (mouse Hepa 1c1c7 cells) and 4.35e-10 M against AHR [2].
As for `N#Cc1ccc(-c2nc3c4cccc(Br)c4nc(N[C@@H]4CCNC4=O)n3n2)cc1` [Example 561, 4-(7-bromo-5-{[(3R)-2-oxopyrrolidin-3-yl]amino}[1,2,4]triazolo[1,5-c]quinazolin-2-yl)benzonitrile], the IC50 at AHR [1] (mouse Hepa 1c1c7 cells) came out at 7.55 nM; against AHR [2], 3.96e-09 M.
For `COc1ccc(-c2nc3c4ccc(C(F)(F)F)cc4nc(N[C@@H]4CNCCNC4=O)n3n2)cc1` [Example 273, (6R)-6-{[2-(4-methoxyphenyl)-8-(trifluoromethyl)[1,2,4]triazolo[1,5-c]quinazolin-5-yl]amino}-1,4-diazepan-5-one], the half-maximal inhibitory concentration (IC50) is 4590 nM on AHR [1] (mouse Hepa 1c1c7 cells) and over 2e-05 M against AHR [2].
`O=C1NCCCC[C@H]1Nc1nc2ccccc2c2nc(-c3cccnn3)nn12` [Example 644, (3R)-3-{[2-(pyridazin-3-yl)[1,2,4]triazolo[1,5-c]quinazolin-5-yl]amino}azepan-2-one]: the figures for the IC50 on AHR [1] (mouse Hepa 1c1c7 cells) and on AHR [2] were 61.7 nM and 1.03e-07 M, respectively.
`Cc1cc(-c2nc3c4ccccc4nc(N[C@H]4CCCCNC4=O)n3n2)cs1` [Example 353]: the values for the IC50 at AHR [1] (mouse Hepa 1c1c7 cells) and on AHR [2] were 27.4 nM and 2.36e-07 M, respectively.
